Test results: US20220273748A1, “PLANT FERMENT AND WEIGHT LOSS METHOD FOR USING THE SAME” (TCI CO., LTD., priority 2021, published 2022)
Where two headings read alike, the source gives them in different places.

Experiments:
PYY gene = experiment: Expression level of PYY gene in NCI-H716 cells (qRT-PCR); format: cell-based; details: Homo sapiens, read-out: expression level of the PYY gene relative to the blank group
Protocol: Herein, the expression level of the gene (Gene ID: 5697) of the peptide tyrosine-tyrosine (PPY) protein in human colorectal adenocarcinoma NCI-H716 cells (purchased from the Bioresource Collection and Research Center (BCRC), number 60517; hereinafter referred to as NCI-H716 cells) treated with each of the compounds TCI-LTF-01, TCI-LTF-02, TCI-LTF-04, TCI-LTF-08, TCI-LTF-09, TCI-LTF-10, TCI-LTF-11, TCI-LTF-12, and TCI-LTF-14 that were identified in Example 7 was determined by using the RNA extraction kit, SuperScript® III Reverse Transcriptase, KAPA SYBR®FAST qPCR reagent kit, and quantitative PCR machine.
A cell culture medium used is a solution containing 20% of fetal bovine serum (FBS, purchased from Gibco, number 10438-026, US), 1% of antibiotic-antimycotic (purchased from Gibco, number 15240-062), 10 mM of HEPES buffer (purchased from Gibco, number 15630080), and 1 mM of sodium pyruvate (purchased from Gibco, number 11360070). The compounds TCI-LTF-01, TCI-LTF-02, TCI-LTF-04, TCI-LTF-08, TCI-LTF-09, TCI-LTF-10, TCI-LTF-11, TCI-LTF-12, and TCI-LTF-14 each was formulated into 100 mM of stock sample with the DMSO solvent.
First, the NCI-H716 cells were inoculated into a 6-well culture plate containing 2 mL of culture medium in a density of 1×10^5 cells per well, and cultured at 37° C. for 24 h. Next, the NCI-H716 cells were divided into a blank group and 9 experimental groups. Then, the cell culture medium in each group was replaced with 2 mL of experimental culture medium per well, and then cultured at 37° C. for 12 h. The experimental culture medium in the blank group was a cell culture medium with no treatment (that is, no additional compounds were added into the cell culture medium). The experimental culture medium in each of the 9 experimental groups was a cell culture medium containing […] of corresponding compound identified in Example 7, and the 9 compounds were: syringin (TCI-LTF-01), 1,5-di-o-caffroylquinic acid (TCI-LTF-02), luteolin (TCI-LTF-04), chlorogenic acid (TCI-LTF-08), dihydrocaffeic acid (TCI-LTF-09), caffeic acid (TCI-LTF-10), 4-hyderoxy-3-phenlylactic acid methyl ester (TCI-LTF-11), calceolarioside B (TCI-LTF-12), and 4-hydroxyphenolic acid (TCI-LTF-14). Herein, each of the 9 compounds was first formulated into 100 mM of stock sample with the DMSO solvent, and then added into the cell culture medium to give a final concentration of 100 μM in the cell culture medium. Each group was repeated for three times.
The cell membranes of the NCI-H716 cells treated in each group were broken with a cell lysis buffer to form a cell solution. Next, RNA of the 10 groups of cell solutions was extracted separately by using an RNA extraction reagent kit (purchased from Geneaid, Taiwan, Lot No. FC24015-G). Then, 1000 ng of the extracted RNA in each group was used as a template, and the extracted RNA was reverse transcribed into corresponding cDNA by the SuperScript® III reverse transcriptase (purchased from Invitrogene, USA, number 18080-051). Subsequently, the quantitative real-time reverse transcription polymerase chain reaction was carried out on the 10 groups of cDNA with the primers (SEQ ID NO: 15 to SEQ ID NO: 16) in Table 4 by using the ABI StepOnePlus™ Real-Time PCR system (Thermo Fisher Scientific, USA) and the KAPA SYBR FAST (purchased from Sigma, USA, number 38220000000) to observe the expression level of the PPY gene in the NCI-H716 cells in the 10 groups. The instrument setting conditions for the quantitative real-time reverse transcription polymerase chain reaction were 95° C. for 20 s, 95° C. for 3 s, 60° C. for 30 s, a total of 40 cycles, and gene quantification was carried out by the 2^−ΔCt method (using the m-ACTB gene as an internal reference gene). Herein, the quantitative real-time reverse transcription polymerase chain reaction with cDNA can indirectly quantify the expression level of the PYY protein encoded by the PPY gene. […]

[1] = system: OP9 cells differentiated into fat cells; experiment: Inhibition of lipid droplet accumulation in fat cells differentiated from OP9 cells (glycerol cell-based assay), isolated compounds; design: species or system mouse; details: final concentration 100 μM, 7 days, blank group = 100%
From the text: Herein, the content of glycerol in fat cells is used as a quantitative indicator to observe whether there is lipolysis.
A cell culture medium used is the α-minimum essential medium (α-MEM, Gibco, number 12000-022) containing 20% of fetal bovine serum (FBS. Gibco, number 10438-026) and 1% of antibiotic-antimycotic (Gibco, number 15240-062).
First, 8×10^4 OP9 cells (purchased from the American Type Culture Collection, ATCC®, number ATCC CRL-2749) were inoculated into a 24-well culture plate containing 500 μL of cell culture medium per well, and cultured at 37° C. for 7 days. During the 7-day cell culture, the cell culture medium was changed every 3 days. After the 7 days of culture, the formation of lipid droplets in the OP9 cells was observed by using a microscope (ZEISS; magnification 400×) to confirm that the OP9 cells were fully differentiated into fat cells for subsequent experiments.
Then, the differentiated fat cells were divided into a blank group and 5 experimental groups. The cell culture medium in each group was replaced with 500 μL of experimental medium per well, and then cultured at 37° C. for 7 days. During the 7-day culture, the experimental medium was replaced with a fresh 500 μL one every 3 days. The experimental culture medium in the blank group was just a cell culture medium (without other compounds), while the experimental culture medium in each of the 5 experimental group was a cell culture medium containing […] of corresponding compound identified in Example 7, and the 5 compounds were: syringin (TCI-LTF-01), 1,5-di-o-caffroylquinic acid (TCI-LTF-02), quercetin-3-glucuronide (TCI-LTF-03), gallic acid (TCI-LTF-06), and chlorogenic acid (TCI-LTF-08). […]
The content of glycerol was determined by using a glycerol cell-based assay kit (purchased from Cayman, USA, product number 10011725) according to the following steps. The experimental culture medium (that is, the experimental culture medium in which fat cells had been cultured, without the fat cells) in each group was collected, 25 μL of the experimental culture medium was transferred into a new 96-well culture plate, 100 μL of reconstituted free glycerol assay reagent was added into each well to react at room temperature for 15 min, and the absorbance OD540 nm of each group was read from the 96-well culture plate by an ELISA reader, to quantify the content of glycerol released into the experimental culture medium through lipolysis, as shown in FIG. 31. […] The obtained results were analyzed by student t-test using Excel software to determine whether there is a statistically significant difference between two sample groups. […]

[2] = NCI-H716 cells, final concentration 100 μM, 12 h, blank group = 1.0

SMILES	fold induction at 100 µM (PYY gene; NCI-H716, 12 h)	lipid droplet content [1] [%]	fold induction at 100 µM (PYY gene; [2])
COc1cc(/C=C/CO)cc(OC)c1O[C@@H]1O[C@H](CO)[C@@H](O)[C@H](O)[C@H]1O [TCI-LTF-01, Syringin]	6.2	64.8	
O=c1cc(-c2ccc(O)c(O)c2)oc2cc(O)cc(O)c12 [TCI-LTF-04, Luteolin]			3.6
O=C(/C=C/c1ccc(O)c(O)c1)OC[C@H]1O[C@@H](OCCc2ccc(O)c(O)c2)[C@H](O)[C@@H](O)[C@@H]1O [TCI-LTF-12, Calceolarioside B]			5.6
O=C(O)c1ccc(O)cc1 [TCI-LTF-14, 4-Hydroxyphenolic acid]			3.6
O=C(O)CCc1ccc(O)c(O)c1 [TCI-LTF-09, Dihydrocaffeic acid]			4.9
O=C(/C=C/c1ccc(O)c(O)c1)O[C@@H]1C[C@](OC(=O)/C=C/c2ccc(O)c(O)c2)(C(=O)O)C[C@@H](O)[C@H]1O [TCI-LTF-02, 1,5-Di-O-caffroylquinic acid]		75.2	2.3
COC(=O)C(O)Cc1ccc(O)cc1 (stereo not shown) [TCI-LTF-11, 4-Hyderoxy-3-phenlylactic acid methyl ester]			4.5
O=C(/C=C/c1ccc(O)c(O)c1)O[C@@H]1C[C@](O)(C(=O)O)C[C@@H](O)[C@H]1O [TCI-LTF-08, Chlorogenic acid]		69.3	5.3
O=C(O)c1cc(O)c(O)c(O)c1 [TCI-LTF-06, Gallic acid]		72.4	
O=C(O)/C=C/c1ccc(O)c(O)c1 [TCI-LTF-10, Caffeic acid]			3.5
